Results published in patent EP0604354B1, “Antidepressant and antiparkinsonian compounds” (N[…]/S, priority 1992, dated 1994).

Key:
[1] = system: abnormal stereotyped behaviour; test: abnormal stereotyped behaviour (high intensity stereotypy rating); type: in vivo; settings: rat, 50 mg/kg i.p.
From the text: Backward locomotion may occasionally be observed.

[2] = system: rearing and locomotor activities; test: behavioural excitatory locomotor and rearing responses (gross behaviour rating); type: in vivo; settings: rat, 50 mg/kg i.p., maximum peak effect, observed 5-6 hrs
Description: Male SPF wistar rats weighing 200-250g were used for the gross behavioural studies. All rats were transferred the day before the experiments to individual cages made of wire netting (floor area 21 x 27 cm, height 16 cm) at a room temperature of 21-23° C. […] The behavioural elements here classified as rearing (i.e. standing up on the hindlegs) and locomotor activities (i.e. forward running activities) were registered, and the maximum peak effects were classified according to the following rating scale: • 0 = non-existent or very infrequent • + = weak and infrequent • ++ = moderate in intensity and frequency • +++ = very strong, continuous and intense
The degree of locomotor activity was also tested and measured quantitatively in photocell activity cages. For the measurement of this locomotor activity 100 g female rats are used.

[3] = system: haloperidol-induced catalepsy; test: catalepsy test for antiparkinsonian effects (antagonism of haloperidol-induced catalepsy); type: in vivo; settings: rat, given perorally 1 h before haloperidol 0.25 mg/kg s.c.; read-out: Minimum effective dose (peroral administration)
From the text: The day before testing, the rats weighing 200-250 g are housed 2 and 2 together in standard macrolon cages. […] The testing for the immobile catalepsy syndrome includes 4 tests performed in the following consecutive order: • 1) a vertical wire netting (40x40 cm high).The meshes (openings) of the nettings are approximately 1x2cm. • 2) a horizontal bar 9 cm above the floor • 3) a 9 cm high block (bar) • 4) a 3 cm high block (cork)
The rats were scored for the immobile cataleptic syndrome every 15 min in all 4 tests starting 15 min after the haloperidol injection. The intensity of catalepsy was tested during 10 sec in all tests and evaluated according to a criteria of 10 sec of total immobility for a score of 2.
The rat was placed in the middle of the vertical wire netting, then on the horizontal bar in an extended position with support by both the forelegs on the bar. The rats were then tested, whether or not they were willing to sit with the left or right forelegs placed first on the 9 and then on the 3 cm block for a duration of 10 sec. The maximum score for all 4 tests is thus a total of 8.

[4] = target: T1, reuptake of dopamine in synaptosomes of rat forebrain (Rattus norvegicus, UniProt P23977); test: inhibition of reuptake of 3H-dopamine in synaptosomes of rat forebrain; type: biochemical
T1 construct: Fresh whole forebrain (at 0-4°C) from male Wistar rats (150-200 g) is homogenized; from tissue; host or cells: male Wistar rat whole forebrain, crude synaptosomal supernatant
Description: Fresh whole forebrain (at 0-4°C) from male Wistar rats (150-200 g) is homogenized in a glass homogenizer with a teflon pestle in 20 x volumes 0.32M sucrose. The homogenate is centrifuged at 1000 x g (∼ 2900 rpm) for 10 min. The pellet is discarded and the supernatant is used for uptake assays.
A Krebs Buffer (119 mM NaCI, 24 mM NaHCO3, 2.1 mM KCI, 1.2 mM KH2PO4, 1.8 mM CaCl2, 2 mM MgSO4, 7H2O, 12 mM glucose) is equilibrated with an atmosphere of 96% O2: 4% CO2 for at least 60 min at 37°C. To 5 ml Krebs-buffer 100 µl of the radioactivity is added (3H-dopamine 1 x 10^-9M final concentration) and 100 µl test substance solution and 200 µl of tissue suspension. The samples are thoroughly mixed and incubated 10 min at 37°C followed by 2 min at 0°C. After incubation the samples are poured directly onto Whatman GF/C glass fibre filters under suction and immediately washed with 2 x 5 ml ice-cold 0.9% saline (NaCI) buffer. To the filter is added 3 ml of scintillation fluid, and the amount of radioactivity on the filters is determined by conventional liquid scintillation counting.

[5] = system: dopamine release; test: dopamine releasing properties (no method given)

T1 sequence (P23977 whole entry): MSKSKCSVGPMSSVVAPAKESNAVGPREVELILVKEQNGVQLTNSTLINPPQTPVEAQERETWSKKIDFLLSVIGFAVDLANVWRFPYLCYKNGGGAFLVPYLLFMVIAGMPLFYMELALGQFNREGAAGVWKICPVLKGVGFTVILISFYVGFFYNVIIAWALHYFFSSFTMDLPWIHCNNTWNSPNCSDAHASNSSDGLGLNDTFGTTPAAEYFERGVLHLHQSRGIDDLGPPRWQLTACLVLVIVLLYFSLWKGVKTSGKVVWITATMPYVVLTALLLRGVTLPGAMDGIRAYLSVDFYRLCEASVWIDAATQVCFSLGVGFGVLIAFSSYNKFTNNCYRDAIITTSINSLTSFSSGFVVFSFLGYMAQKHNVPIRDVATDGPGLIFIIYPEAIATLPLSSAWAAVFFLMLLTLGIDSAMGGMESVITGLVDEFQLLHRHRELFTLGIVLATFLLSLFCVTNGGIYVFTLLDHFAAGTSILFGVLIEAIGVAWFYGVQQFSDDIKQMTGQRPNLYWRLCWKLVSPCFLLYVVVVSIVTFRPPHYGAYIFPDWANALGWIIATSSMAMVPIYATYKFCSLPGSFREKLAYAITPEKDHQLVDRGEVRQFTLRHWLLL

| SMILES | Activity (abnormal stereotyped behaviour, high intensity stereotypy) [1] | Activity (excitatory locomotor and rearing responses) [2] | minimal effective dose [3] | IC50 [4] | dopamine releasing properties [5] |
| --- | --- | --- | --- | --- | --- |
| CN1[C@H]2CC[C@@H]1[C@H](COc1ccc(Cl)cc1)[C@@H](c1ccc(F)cc1)C2.Cl [(1R,2R,3S)-2-(4-Chlorophenoxy-methyl)-3-(4-fluorophenyl)tropane, hydrochloride] | 0 | 0 | < 1 mg/kg | 390 nM |  |
| COC(=O)[C@@H]1[C@@H](c2ccc(F)cc2)C[C@@H]2CC[C@H]1N2C [trans isomer of Win 35,428] |  |  |  |  | essentially free of dopamine releasing properties |
